Source: patent publication US20250382322A1, “DIAGNOSTICS FOR DETECTING ECTO-5'-NUCLEOTIDASE (CD73)” (EBERHARD KARLS UNIVERSITÄT TÜBINGEN, priority 2022, published 2025)

How the values were obtained:
Format in all cases: biochemical
Details in all cases: ATP (100 μM) as substrate
[1] = target: T1, human NTPDase3 (Homo sapiens, UniProt O75355); assay: Capillary electrophoresis assay for human NTPDase3
T1 sequence (O75355 1-529): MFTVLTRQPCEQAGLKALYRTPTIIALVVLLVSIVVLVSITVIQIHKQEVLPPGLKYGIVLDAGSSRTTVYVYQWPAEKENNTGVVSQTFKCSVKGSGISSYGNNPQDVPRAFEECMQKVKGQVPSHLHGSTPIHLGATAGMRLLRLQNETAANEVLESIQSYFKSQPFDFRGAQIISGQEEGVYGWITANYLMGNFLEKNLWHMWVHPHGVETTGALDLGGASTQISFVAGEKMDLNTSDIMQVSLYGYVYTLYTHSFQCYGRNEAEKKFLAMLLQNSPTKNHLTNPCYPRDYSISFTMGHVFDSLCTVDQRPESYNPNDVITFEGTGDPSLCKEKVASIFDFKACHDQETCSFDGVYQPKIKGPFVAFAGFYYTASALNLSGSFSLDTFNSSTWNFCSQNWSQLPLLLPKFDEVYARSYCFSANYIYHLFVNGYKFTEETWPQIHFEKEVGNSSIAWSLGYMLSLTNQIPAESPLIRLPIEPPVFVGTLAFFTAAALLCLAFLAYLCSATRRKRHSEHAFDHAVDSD
Procedure: (§1) Inhibitory activity of the CD73 inhibitors 2 and 20 at human NTPDases 1, 2, 3, and 8 was investigated using ATP (100 μM) as a substrate according to previously published procedures.^24 ATP and 2 were co-incubated with recombinantly expressed human NTPDases at 37° C. for 30 min, and the enzymatic reaction was terminated by heating at 90° C. for 10 min. The amount of enzyme preparation was adjusted to ensure 10-20% of substrate conversion. The formed products were separated by capillary electrophoresis (CE) and individually quantitated by diode array detection (DAD) at a wavelength of 260 nm. For inhibition analysis, at least three independent experiments were performed each in triplicate. The inhibition of the enzyme activity was calculated in relation to the positive control without inhibitor and plotted by GraphPad Prism 8 software (GraphPad software, San Diego, CA, USA) (for results see Table 2 and Table 3).
(§2) Test compounds were investigated at a concentration of 50 μM, and 100 μM ATP substrate according to published procedures.^24 Recombinantly expressed human NTPDases were employed. The amount of enzyme preparation was adjusted to ensure 10-20% of substrate conversion. […] The inhibition of the enzyme activity was calculated in relation to the positive control without inhibitor and plotted in GraphPad Prism 8 software (GraphPad software, San Diego, CA, USA). […]

[2] = target: T2, human NTPDase2 (Homo sapiens, UniProt Q9Y5L3); assay: Capillary electrophoresis assay for human NTPDase2
T2 sequence (Q9Y5L3 1-495): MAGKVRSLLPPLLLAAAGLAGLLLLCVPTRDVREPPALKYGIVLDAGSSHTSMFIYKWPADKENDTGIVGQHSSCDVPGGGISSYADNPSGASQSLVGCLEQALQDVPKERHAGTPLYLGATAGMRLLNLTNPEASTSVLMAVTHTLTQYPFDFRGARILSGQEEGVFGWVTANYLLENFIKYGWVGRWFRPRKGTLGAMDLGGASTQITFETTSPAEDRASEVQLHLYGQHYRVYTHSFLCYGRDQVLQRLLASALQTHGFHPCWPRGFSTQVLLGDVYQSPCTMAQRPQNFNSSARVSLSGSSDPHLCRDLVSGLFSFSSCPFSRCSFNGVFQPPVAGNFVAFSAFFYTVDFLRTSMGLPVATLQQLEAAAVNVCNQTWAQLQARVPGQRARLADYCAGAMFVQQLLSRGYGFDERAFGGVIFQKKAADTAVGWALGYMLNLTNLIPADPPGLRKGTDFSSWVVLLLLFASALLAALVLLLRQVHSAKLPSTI
Procedure: as §1, §2

[3] = target: T3, human NTPDase1 (Homo sapiens, UniProt P49961); assay: Capillary electrophoresis assay for human NTPDase1
T3 sequence (P49961 1-510): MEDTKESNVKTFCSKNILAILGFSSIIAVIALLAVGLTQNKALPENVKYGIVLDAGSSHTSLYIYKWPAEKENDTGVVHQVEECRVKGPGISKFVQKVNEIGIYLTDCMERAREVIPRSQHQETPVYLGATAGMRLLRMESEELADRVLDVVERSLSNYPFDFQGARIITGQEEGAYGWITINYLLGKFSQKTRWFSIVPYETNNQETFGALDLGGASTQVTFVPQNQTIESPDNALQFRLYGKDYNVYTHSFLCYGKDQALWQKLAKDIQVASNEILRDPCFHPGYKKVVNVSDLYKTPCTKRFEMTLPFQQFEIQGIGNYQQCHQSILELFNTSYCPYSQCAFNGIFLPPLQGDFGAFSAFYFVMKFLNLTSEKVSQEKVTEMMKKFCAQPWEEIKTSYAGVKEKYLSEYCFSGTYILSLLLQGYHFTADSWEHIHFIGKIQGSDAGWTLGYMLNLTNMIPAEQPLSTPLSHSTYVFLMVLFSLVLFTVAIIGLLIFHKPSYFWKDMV
Procedure: as §1, §2

SMILES | IC50 [1] [µM] | IC50 [2] [µM] | IC50 [3] [µM]
CCCN(Cc1ccc(-c2cn(CCF)nn2)cc1)c1nc(Cl)nc2c1ncn2[C@@H]1O[C@H](COP(=O)(O)CP(=O)(O)O)C(O)C1O (stereo partly drawn) [Compound 2] | > 50 | > 50 | > 50
O=C(NCCCCCCNC(=O)c1ccc2c(c1)C1(OC2=O)c2ccc(O)cc2Oc2cc(O)ccc21)c1ccc(CNc2nc(Cl)nc3c2ncn3[C@@H]2O[C@H](COP(=O)(O)CP(=O)(O)O)[C@@H](O)[C@H]2O)cc1 [Compound 20, (((((2R,3S,4R,5R)-5-(2-chloro-6-((4-((6-(3′,6′-dihydroxy-3-oxo-3H-spiro[isobenzofuran-1,9′-xanthene]-6-carboxamido)-hexyl)carbamoyl)benzyl)amino)-9H-purin-9-yl)-3,4-dihydroxytetrahydrofuran-2-yl)methoxy)(hydroxy)phosphoryl)methyl)phosphonic acid] | 27.7 | < 50 | 27.6
